According to patent publication US20090075925A1, “Methods and Compositions Related to APOBEC-1 Expression” (priority 2006, published 2009):
Several values for one entry are separate records, joined by “and”; a condition that tells them apart may be missing. Identical values can stand only once. Like-named read-outs stand apart in the source and are kept apart here. Each block holds one compound with its values, some of them ahead of it.

What was measured:
apoB mRNA editing = conditions: for apoB mRNA editing, Mean ± SEM: 6 hours
Protocol: Protein phosphatase inhibitor studies. […] The compounds' effects on apoB mRNA editing were evaluated by RT-PCR and poisoned-primer extension analysis (Sowden et al. Rna 2:274-88 (1996)). The effect of 470 nM cantharidin on ACF subcellular distribution was investigated by treating primary hepatocyte cultures for 6 hours followed by nuclear and cytoplasmic extract preparation.
It was reasoned that if phosphorylation of ACF regulated editing activity, treatment of rat primary hepatocytes with phosphatase inhibitors might stimulate apoB mRNA editing activity. […] The experiments (n=4-6) were done over a number of months and therefore represent primary hepatocytes from several rats.
Editing activity was quantified from primary hepatocytes incubated with 10-100-times the EC50 of the various […] (Calbiochem).

ACF [1] = assay: ACF phosphorylation in 32P-labeled rat primary hepatocytes (ACF immunoprecipitation, autoradiography); type: cell-based
Protocol: In vivo phosphorylation of ACF. In vivo ^32P labeling was performed by intraperitoneal injection of rats with 12.5 mCi of orthophosphoric acid (10 mCi/ml ^32PO4; NEN, Boston, Mass.) buffered with 50 mM HEPES, pH 7.0 and 150 mM NaCl. After 4 hours, rats were sacrificed and hepatic cytoplasmic and nuclear extracts prepared. Primary hepatocyte cultures in 60 mm dishes were incubated in phosphate-free Minimum Essential Eagle Media (Sigma) containing 0.1 nM porcine insulin for 6 hours and subsequently in fresh media containing 10 nM insulin (equivalent to that seen in post-prandial serum) or 0.45% to 0.9% ethanol (AAPER Alcohol and Chemical Co., Shelbyville, Ky.) (Van Mater et al. (1998), Yang et al. (2000)) plus 2.0 mCi orthophosphoric acid. Cultures were labeled for 4 hours prior to extract preparation.
To evaluate the effect of phosphatase inhibition on ACF phosphorylation, cultures were pre-incubated for 2 hours with 470 nM cantharadin in phosphate-free Waymouth's media and subsequently supplemented with 0.5 mCi ^32pO4 and incubated for an additional 4 hours. Cultures were harvested and subcellular extracts prepared.
Immunological techniques. […] For immunoprecipitation analyses all radiolabeled extracts were adjusted to 5 mM MgCl2 and digested with 100 units of DNase I (Promega), RNase T1 (Roche, Ind.), and RNase A (Sigma) for 1 hour on ice to remove radiolabeled nucleic acid. Where applicable, extracts were incubated overnight with ACF CT antibody at 4° C. and subsequently reacted with Protein A-agarose (Oncogene Research Products, Boston, Mass.) pre-washed with 1×TBS/10 mM NaF. The immuno-absorbed material was washed 3 times with 1×TBS/10 mM NaF, 3 times with 1×TBS/1 M NaCl (Yang et al. (1997)) and lastly 3 times with 1×TBS. Immuno-absorbed material to be treated with alkaline phosphatase was washed with 50 mM Tris, pH 8.4, 1 mM MgCl2, 0.1 mM ZnCl2, 25% glycerol and then incubated with 5 U CIAP for 1 hour at 30° C. and then washed 6 times with 1×TBS. ACF-antibody complexes were eluted with 3 M sodium thiocyanate, acetone precipitated and analyzed by 10.5% SDS-PAGE followed by autoradiography and/or western blotting with ACF NT antibody. For ACF immunoprecipitation from gradient fractions an equal volume of pooled gradient fractions from sedimentation zones of interest were reacted with sub-saturating amounts of ACF CT antibody to ensure that the recovery of phospho-ACF was not simply a reflection of ACF abundance in each zone.
To evaluate this, cytoplasmic and nuclear extracts from radiolabeled primary hepatocyte cultures were sedimented through 10%-50% glycerol gradients. […] The ACF immunoprecipitates were resolved by SDS-PAGE, transferred to nitrocellulose, autoradiographed and subjected to phosphorimager scanning to detect and quantify radiolabeled proteins prior to immunoblotting with the ACF NT antibody.

ACF [2] = assay: hepatic ACF nuclear retention in lean and ob/ob mice after insulin challenge; type: in vivo, mouse; conditions: 4 h following 1.5 IU insulin/kg BW
Protocol: The mice are insulin-resistant as evident in elevated blood glucose (180-220 mg/dl after fasting) and lack a significant response to challenge when injected with 1.5 IU of insulin/kg BW. It has been shown that apobec-1 gene expression and apoB mRNA editing is markedly stimulated by insulin (Sowden, M. P. et al. (2002); Funahashi, T. F. et al (1995); Phung, T. L. et al. Metabolism 45, 1056-1058 (1996); von Wronski, M. A. et al. Metabolism 47, 869-73 (1998)). As a further indicator of the insulin-resistant state of these animals, it is apparent that hepatic apoB mRNA editing is not stimulated compared to cogenic lean mice (FIG. 40). The results from three fed animals as lean, ob/ob and 4 h Insulin-treated ob/ob mice are shown. Editing was evaluated using the established poisoned-primer extension assay for quantifying edited apoB mRNA where % editing is calculated from PhosphorImager scans as the counts in the edited band, divided by the sum of the counts in the edited plus unedited bands X 100. The nuclear-cytoplasmic distribution of ACF was next assessed in lean and ob/ob mouse liver without or with insulin challenge (4 h following 1.5 IU insulin/kg BW). […] The fold-nuclear retention of total cellular ACF was calculated from these values and is provided at the bottom of the image.

ACF [3] = system: ACF
PP2A = conditions: cited from earlier work
PP1 = conditions: cited from earlier work
apoB protein = assay: intracellular and secreted apoB protein in primary hepatocytes (radioimmunoassay); type: cell-based, rat
Protocol: The effect of Cantharidin on the abundance of intracellular and secreted apoB protein was also evaluated. Primary hepatocyte cultures were treated with Cantharidin at the IC50 of PP1 and 10-times higher (n=5 for each condition). Intracellular apoB protein in hepatocyte cytoplasmic extracts and apoB protein secreted into the media as VLDL was quantified as ng apoB protein per mg total protein in the Sparks' lab by radioimmunoassay using a monoclonal antibody against apoB as described previously (Chirieac et al. (2000), Au et al. (2004), Sparks, J D and Sparks, C E J Biol Chem 265:8854-62 (1990)) (FIG. 13). For these experiments, insulin was withdrawn from control and Cantharidin-treated cultures 24 hours prior to the addition of Cantharidin in order to isolate the effect of PP 1 inhibition in the absence of insulin stimulated kinase activity.
If alterations in ACF phosphorylation are consequently to ApoB metabolism, then intracellular ApoB protein abundance should be responsive to inhibition of PP1. This was evaluated in treated primary hepatocytes by quantifying ApoB protein in hepatocyte cytoplasmic extracts and secreted into the media as VLDL using ApoB radioimmunoassay and expressed as ng ApoB protein per mg total protein (FIG. 13). For these experiments insulin was withdrawn from control and cantharidin-treated cultures 24 hours prior to the addition of cantharidin in order to isolate the effect of PP I inhibition in the absence of insulin stimulated kinase activity. […] This is the same dose response that was reported for maximal phospho-ACF recovery Mehta, A. et al (2002)).

[4] = 0.5 μM (IC50 of PP1), insulin withdrawn 24 hours before

Compound: C=C[C@@]1(C)CC(=O)[C@]2(O)[C@@]3(C)[C@@H](O)CCC(C)(C)[C@@H]3[C@H](O)[C@H](OC(C)=O)[C@@]2(C)O1 [Forskolin]
- apoB mRNA editing, Mean (apoB mRNA editing; 4 μM): 70.6%
- apoB mRNA editing, Mean (apoB mRNA editing; 40 μM): 68.5%
- apoB mRNA editing, Mean (apoB mRNA editing; 120 μM): 69%

- effect on editing in hepatocytes (apoB mRNA editing): did not affect editing
Compound: O=S(=O)(c1cccc2c(I)cccc12)N1CCCNCC1 [ML-7]

- effect on editing in hepatocytes (apoB mRNA editing): stimulated
Compound: O=S(=O)(NCCNC/C=C/c1ccc(Br)cc1)c1cccc2cnccc12 [H89]

- effect on editing in hepatocytes (apoB mRNA editing): stimulated
Compound: COc1ccc(S(=O)(=O)N(CCO)c2ccccc2CN(C)C/C=C/c2ccc(Cl)cc2)cc1 [KN93]

Compound: insulin: porcine insulin (Sigma)
- increase of phosphorylated ACF in nuclear 27S editosomes (ACF [1]; 10 nM insulin, 4 hours): 2.5 fold and 2 fold
- editing in metabolic state of rat hepatocytes (model, basal ~65%) (apoB mRNA editing): ~80%
- hepatic ACF nuclear retention, fold change (ACF [2]; lean mice): 4 fold
- hepatic ACF nuclear retention, fold change (ACF [2]; ob/ob mice): 0.9 fold

Compound: CCCCCCCCCCCCCC(=O)O[C@@H]1[C@@H](C)[C@@]2(O)[C@@H](C=C(CO)C[C@]3(O)C(=O)C(C)=C[C@@H]23)[C@@H]2C(C)(C)[C@]12OC(C)=O [PMA]
- apoB mRNA editing, Mean (apoB mRNA editing; 500 nM): 68.8%
- apoB mRNA editing, Mean (apoB mRNA editing; 5 μM): 64.9%
- apoB mRNA editing, Mean (apoB mRNA editing; 50 μM): 63%

Compound: C[C@@]12C(=O)OC(=O)[C@]1(C)[C@H]1CC[C@@H]2O1 [Cantharidin]
- nuclear ACF (control nuclear to cytoplasmic 1:1) (ACF [3]; 470 nM, 4 hours): five-fold increase in nuclear ACF
- nuclear ACF compared to untreated control hepatocytes (ACF [3]; 0.5 μM (IC50 of PP1)): marked increase in nuclear ACF
- ACF phosphorylation (ACF [1]; 470 nM): increased
- IC50 (PP2A): 40 nM
- IC50 (PP2A; listed as cantharidin): 47 nM
- apoB mRNA editing, Mean ± SEM (apoB mRNA editing; 4.7 nM): 62 ± 2%
- apoB mRNA editing, Mean ± SEM (apoB mRNA editing; 47 nM): 64 ± 1%
- apoB mRNA editing, Mean ± SEM (apoB mRNA editing; 470 nM): 75 ± 1%
- effect on apoB mRNA editing (apoB mRNA editing; 470 nM, the IC50 for PP1): reproducible, but not statistically significant increase in editing
- apoB mRNA editing, Mean ± SEM (apoB mRNA editing; 4.7 μM): 91 ± 1%
- apoB mRNA editing (increased from 66%) (apoB mRNA editing; about 10 times the IC50 for PP1 (cantharidin 4.7 μM)): > 90%
- effect on apoB mRNA editing (apoB mRNA editing; concentration not given): stimulated apoB mRNA editing
- IC50 (PP1): 473 nM
- IC50 (PP1; listed as cantharidin): 470 nM
- reduction in intracellular (cell) apoB relative to untreated hepatocytes (apoB protein; [4]): 22%
- reduction in secreted (media) apoB relative to untreated hepatocytes (apoB protein; [4]): 17%
- reduction in secreted apoB (apoB protein; 5 μM): ≥ 30%
- reduction in intracellular apoB (apoB protein; 5 μM (10-times the IC50)): ≥ 60%
